The text below walks through data of a melting point compilation (Tetko et al.; mined from patent text by program, amines drawn as free bases though some values may be those of a salt).

Residues, ends and D or L forms follow the SMILES beside them. *: point of attachment. Boc = CC(C)(C)OC(=O)* A value given as a limit tells only on which side of the number the result lay.

Broadly, the melting point is the temperature, or range, at which the solid turns liquid.

In turn, `N#Cc1c2[nH]c(C(=O)O)cc(=O)c2cc2c(=O)cc(C(=O)O)[nH]c12` had a melting point of over 320 °C.

In turn, `ON=Cc1ccc2c(c1)ncn2-c1cccc(CNCc2ccc(F)c(F)c2)c1` returned a melting point of 165 to 167 °C.

On to `CC1CN(c2nc(Cl)nc(C(C)O)n2)CC(C)N1` (stereo not given), for which the melting point is 126 to 128 °C.

Take `CC(C)c1c(Sc2ccccc2)n(CC2=CCC(CO)C2)c(=O)[nH]c1=O` (stereo not given): the melting point was 166 to 168 °C.

With `COc1cccc(CCN2C(=O)COc3ccc(C=C4SC(=S)NC4=O)cc32)c1`, the melting point fell in the range of 233 to 236 °C.

For the compound `Cc1cc(-c2cc(C(F)(F)F)n3ncc(-c4nc(-c5cnc(N)nc5)no4)c3n2)ccc1C(F)(F)F`, the melting point came to 272 °C.

Regarding `CCOC(=O)Cc1c2cc(F)ccc2n2c(-c3ccc(SC)cc3)nccc12`, the melting point is 59 to 62 °C.

`Cc1nn(-c2ccc(C(=O)O)cc2)c(O)c1-c1c(C)nn(-c2ccc(C(=O)O)cc2)c1O` came in with a melting point of over 280 °C.

`O=CN1CCCN2c3ccccc3Cc3ccccc3C2C1` (stereo not given) had a melting point of 146 to 148 °C.

For `CCn1cc(C(=O)O)c(=O)cc1-c1ccc(N(C)C)cc1`, the melting point was in the range of 258 to 259 °C.

In turn, `Cc1ccc(CN2CCOCC2)cn1` came in with a melting point of 51 to 52 °C.

Compound `Cc1c(-c2ccccc2)sc2nc(Nc3ccccc3)[nH]c(=O)c12` registered a melting point of 270 to 290 °C.

Compound `COC(=O)c1ccc(-c2nc(-c3cc(Cl)sc3Cl)cs2)cc1` had a melting point of 149 to 150 °C.

For `N[C@@H](Cc1ccccc1)C(=O)N(C(=O)Cc1cc(F)cc(F)c1)[C@@H]1C(=O)Nc2ccccc2S[C@@H]1c1ccccc1`, the melting point is 115 to 120 °C.

Take `Cc1cc2c(c(OCC(=O)c3ccc(C(C)C)cc3)c1)CCC2`: the melting point is 68 to 69 °C.

`Nc1cc(C(O)=S)cc(Cc2ccccc2)c1C(=O)c1ccccc1` displayed a melting point of 141 to 142 °C.

As for `Clc1cccc(Oc2ccc(OCc3ccc(Br)s3)cc2)n1`, the melting point lay in the range of 78 to 80 °C.

Compound `CCOC(=O)CC[C@H](NC(=O)c1ccc(CN(C=O)CC2CNc3nc(NC(=O)C(C)(C)C)nc(O)c3C2)cc1)C(=O)OCC` (stereo not given in full) displayed a melting point of 149 to 151 °C.

`Cn1cccc1CCNC(=O)Cn1c(-c2ccc(Cl)cc2)nc2cccnc21` returned a melting point of 171 to 172 °C.

The compound `Cc1ccc(-n2c3ccccc3c3cc(C(C#N)=C(C#N)C#N)ccc32)cc1` registered a melting point of 233 to 234 °C.

`COc1ccc(N)cc1C(=O)O`: the melting point lay in the range of 163 to 166 °C.

Compound `Cc1ccc2c(Cl)cc(Cl)c(OCC#N)c2n1` displayed a melting point of 157 to 158 °C.

For the compound `COc1cc2c(cc1Nc1ncc(Cl)c(Nc3ccccc3S(=O)(=O)N3CCC(O)C3)n1)CCNC(=O)C2` (stereo not given), the melting point fell in the range of 86 to 97 °C.

With `O=C(Nc1cccnc1)N1CCN(c2nccc(-c3ccc(F)cc3F)n2)CC1`, the melting point lay in the range of 206 to 207 °C.

In the case of `Nc1nc(NCCC2CCC3(CC2)OCCO3)nc2c1ncn2C1OC(CO)C(O)C1O` (stereo not given), the melting point fell in the range of 133 to 137 °C.

In turn, `O=C(O)CCCOc1ccc(OCc2ccccc2)cc1` returned a melting point of 125 to 126 °C.

On to `COC(=O)c1nc2c(c(-c3cccs3)nn2-c2ccccc2)c(N)c1C(=O)OC`, for which the melting point was 178 to 180 °C.

In the case of `CCOC(=O)CCCOc1ccc(C(=O)Nc2ccccc2Sc2ccccc2-c2nnn[nH]2)cc1`, the melting point lay within 173 to 175 °C.

Regarding `CCOC(=O)C=C(C)C=CC=C(C)C=Cc1c(Cl)cc(OC)cc1Cl`, the melting point lay in the range of 117 to 118 °C.

The compound `COc1ccc(Cn2cnc3c(-c4ccco4)nc(N(C(C)=O)C(C)=O)nc32)cc1` registered a melting point of 167 to 168 °C.

Compound `O=C(CCCl)N1CCc2ccc([N+](=O)[O-])cc21` showed a melting point of 127 to 128 °C.

For `O=P(Oc1ccccc1)(Oc1ccccc1)C1(N2CCOCC2)CCCCC1`, the melting point was in the range of 103 to 106 °C.

Consider `O=C1OCCC1Oc1cc(F)ccc1[N+](=O)[O-]` (stereo not given), for which the melting point lay within 98 to 100 °C.

Compound `CCCCCC(COc1ccc(C(=O)O)cc1)c1ccc2c(c1)C(C)(C)CC(C)(C)O2` (racemic) returned a melting point of 94 to 96 °C.

Take `O=C1CCC(c2c[nH]c3ccc(F)cc23)C1` (stereo not given): the melting point was in the range of 119 to 120 °C.

For `OCCOc1ccc(-n2cncn2)cc1`, the melting point fell in the range of 151 to 152 °C.

The compound `O=C(Nc1ccc(Cl)c(C(F)(F)F)c1)Nc1ccc(-c2ccc(C(F)(F)F)cc2)cc1-c1nnn[nH]1` yielded a melting point of 226 to 228 °C.

For `COC(=O)CC(NC1CC1)=C(C(=O)OC)C(=O)C(F)(F)C(F)(F)F`, the melting point fell in the range of 32 to 34 °C.

`COC(=O)CCCc1cc2nc(Cl)ccc2n1S(=O)(=O)c1cc(C)cc(C)c1` showed a melting point of 138 °C.

For `COc1ccc(C2(C#N)CCC(=C3SCCCS3)CC2)cc1OC1CCCC1` (stereo not given), the melting point was in the range of 115 to 116 °C.

For the compound `CSc1nc2ccccc2n1C1CCNCC1`, the melting point lay in the range of 114 to 115 °C.

`CCOC(=O)Cn1c2c(n(Cc3ccccc3)c(=O)c1=O)CCC1=C2C=C(N)CC1` yielded a melting point of 231 °C.

Compound `CC(C)C(=O)n1ccc(-c2ccc(Oc3ccccc3)cc2)n1` returned a melting point of 49 to 51 °C.

For `NC(=O)C1CCCc2c1c1cc(OCCCC(=O)O)ccc1n2Cc1ccccc1` (stereo not given), the melting point was 199 to 200 °C.

For `O=C(O)COc1c(Br)cc(C(=O)c2c(CCc3ccccc3)oc3ccccc23)cc1Br`, the melting point lay within 163 to 164 °C.

On to `CNc1nc(C)c(-c2ccnc(Nc3cccc(CNC(C)=O)c3)n2)s1`, for which the melting point lay within 253 to 255 °C.

The compound `O=C(O)COc1cc2c(c(Cl)c1Cl)C(=O)C(c1ccc(F)cc1)C2` (stereo not given) registered a melting point of 189 to 190 °C.

For the compound `COc1cc(CCc2c(/C=C/[N+](=O)[O-])ccc(OC)c2OC)cc(OC)c1`, the melting point was 95 to 96 °C.

For `CCCCCCc1ccc(-c2ccc(C3CCC(C#N)(CCCCCC)CC3)cc2)cc1` (stereo not given), the melting point worked out at 66 °C.

For the compound `CCCCCCCCCCCCCCCCCC(=O)NC(=O)OCc1nc(C(C)C)c(Sc2cc(Cl)cc(Cl)c2)n1Cc1ccncc1`, the melting point lay in the range of 73 to 77 °C.

For the compound `O=C1N(c2c(Cl)cccc2Cl)Cc2cnc(Nc3cccc4ccccc34)nc2N1c1ccccc1`, the melting point was in the range of 213 to 214 °C.

Compound `CNC(=O)c1sc(C(C)(C)C)cc1NC(=O)Nc1ccc(C)cc1` showed a melting point of 202 to 204 °C.

As for `CN(C)C(=O)c1nc2n(n1)-c1ccc([N+](=O)[O-])cc1C(c1ccccc1)=NC2`, the melting point lay within 209 to 211 °C.

As for `CC1(C)CCC(C)(C)c2cc(S(=O)c3ccc(C(=O)O)cc3)ccc21` (stereo not given), the melting point lay within 214 to 216 °C.

For `CCOC(=O)/C=C/c1c2c(nn1-c1ccc(F)cc1)C(Cc1ccccc1)CCC2` (stereo not given), the melting point is 117 to 118 °C.

`CCC(CCOC)c1ccc(Cl)c2nc3n(c12)CCCN3c1ccc(Cl)cc1Cl` (stereo not given) showed a melting point of 144 to 146 °C.

Consider `CC(C)CC(N)C(=O)NC(CCCCNC(=O)OC(C)(C)C)C(=O)O` (stereo not given) (H-Leu-Lys(Boc)-OH; configuration not given here), for which the melting point is 142 to 143 °C.

Compound `COC(=O)c1cccc(/C=C/c2cccc(Br)c2)c1` returned a melting point of 79 to 84 °C.

Consider `N=C(Nc1ccc(Cl)cc1)Nc1ncccc1OCc1ccccc1Cl`, for which the melting point fell in the range of 162 to 163 °C.

As for `COc1ccccc1N1CCN(CC(O)COc2ccc(OCc3ccccc3)c(C(C)(C)C)c2)CC1` (stereo not given), the melting point fell in the range of 133 to 134 °C.
